US20040106545A1, “Compounds and methods for modulating cell adhesion” (priority 1996, published 2004)
Where “and” joins values, the source holds several entries; their conditions need not be identical. Equal entries are not always repeated.

Legend:
human skin = test: Human skin permeability, Franz Cell apparatus
Protocol: Another cell adhesion assay involves evaluating the effect of a modulating agent on permeability of adherent epithelial and/or endothelial cell layers. For example, the effect on permeability of human skin may be evaluated. Such skin may be derived from a natural source or may be synthetic. Human abdominal skin for use in such assays may generally be obtained from humans at autopsy within 24 hours of death. Briefly, a cyclic peptide and a test marker (e.g., the fluorescent markers Oregon Green™ and Rhodamine Green™ Dextran) may be dissolved in a sterile buffer, and the ability of the marker to penetrate through the skin and into a receptor fluid may be measured using a Franz Cell apparatus (Franz, Curr. Prob. Dermatol. 7:58-68, 1978; Franz, J. Invest. Dermatol. 64:190-195, 1975). In general, a modulating agent that enhances the permeability of human skin results in a statistically significant increase in the amount of marker in the receptor compartment after 6-48 hours in the presence of 500 μg/mL modulating agent. This assay evaluates the effect of a modulating agent on E-cadherin mediated cell adhesion.
Abdominal skin from humans at autopsy within 24 hours of death was used in these assays. The effect of N—Ac-CHAVC-NH2 (SEQ ID NO:10) and N—Ac-CHGVC-NH2 (SEQ ID NO:11), used at a concentration of 500 μg/ml or 2.5 mg/ml, on the penetration of two fluorescent markers, Oregon Green 488 (charge −1, MW 386 daltons) and Rhodamine Green 3000 Dextran (no charge, MW 3000 daltons) through human skin was then evaluated utilizing a Franz Cell apparatus (Franz, Curr. Prob. Dermatol. 7:58-68, 1978; Franz, J. Invest. Dermatol. 64:190-195, 1975). The peptides and markers were dissolved in sterile phosphate buffer, pH 7.2, and phosphate buffer was used as the receptor fluid. 150 μl of solution containing 0.2 mg Oregon Green and 1.0 mg Rhodamine Green was used to evaluate 500 μg/ml peptide; 200 μl of solution containing 0.05 mg Oregon Green and 1.250 mg Rhodamine Green was used to evaluate 2.5 mg/ml peptide. The solution was placed on top of the epidermal side of the skin, and the penetration of the markers through the skin was assessed using a fluorescent spectrophotometric method (in a Perkin Elmer 650-105 Fluorescence Spectrophotometer, and comparing the reading to a standard curve) at 6, 12, 24, 36, and 48 hours after the start of the experiment. The fluorescent units were converted to a concentration unit of microgram/5 ml (volume of the receiver compartment) using a standard curve and regression analysis equations. The curve was linear for the concentrations tested for both markers (r^2=1 for OrG and 0.997 for RhG). For each peptide and marker combination, the experiment was performed in triplicate.

[1] = test system: SKOV3 human ovarian cancer cells; test: Induction of apoptosis in SKOV3 cancer cells, in situ cell death detection; type: cell-based; conditions: 0.5 or 0.25 mg/mL, 48 hours
Protocol: Direct assays of induction of apoptosis may be performed using any standard technique. For example, cadherin-expressing cells (e.g., SKOV3 human ovarian cancer cells) may be plated onto poly-L-lysine coated glass slides and cultured with 500 μg/mL of modulating agent for 24-48 hours. Cells may then be fixed and assayed for cell death using any of a variety of well known methods. For example, an in situ cell death detection kit may be purchased from Boehringer Mannheim (Laval, Quebec) and used according to the manufacturer's instructions.
SKOV3 human ovarian cancer cells cultured in the presence of either N—Ac-CHAVC-NH2 (SEQ ID NO:10) or a control peptide (N—Ac-CHGVC-NH2; SEQ ID NO:11) in MEM with 10% FBS were plated onto poly-L-lysine coated glass slides. The cells were cultured for 24 or 48 hours and fixed with 4% paraformaldehyde for 30 minutes at room temperature. The slides were then washed three times with PBS and assessed for cell death. Cells were treated with 0.5 or 0.25 mg/mL of N—Ac-CHAVC-NH2 (SEQ ID NO:10) or the control N—Ac-CHGVC-NH2 (SEQ ID NO:11), as indicated. Cell death was measured as described by Gavrieli et al, J. Cell. Biol. 119:493-501, 1992 and using the In situ cell death detection kit (Boehringer Mannheim; Laval, Quebec).

[2] = 500 μg/ml Peptide, t = 6 hours, Mean
[3] = 500 μg/ml Peptide, t = 6 hours, single replicates, listed as Sample#3
[4] = 500 μg/ml Peptide, t = 12 hours, Mean
[5] = 500 μg/ml Peptide, t = 12 hours, single replicates, listed as Sample#3
[6] = 500 μg/ml Peptide, t = 24 hours, Mean
[7] = 500 μg/ml Peptide, t = 24 hours, single replicates, listed as Sample#3
[8] = 500 μg/ml Peptide, t = 36 hours, Mean
[9] = 500 μg/ml Peptide, t = 36 hours, single replicates, listed as Sample#3
[10] = 500 μg/ml Peptide, t = 48 hours, Mean
[11] = 500 μg/ml Peptide, t = 48 hours, single replicates, listed as Sample#3
[12] = 2.5 mg/ml Peptide, t = 6 hours, Mean
[13] = 2.5 mg/ml Peptide, t = 6 hours, single replicates, listed as Sample#3
[14] = 2.5 mg/ml Peptide, t = 12 hours, Mean
[15] = 2.5 mg/ml Peptide, t = 12 hours, single replicates, listed as Sample#3
[16] = 2.5 mg/ml Peptide, t = 24 hours, Mean
[17] = 2.5 mg/ml Peptide, t = 24 hours, single replicates, listed as Sample#3
[18] = 2.5 mg/ml Peptide, t = 36 hours, Mean
[19] = 2.5 mg/ml Peptide, t = 36 hours, single replicates, listed as Sample#3
[20] = 2.5 mg/ml Peptide, t = 48 hours, Mean
[21] = 2.5 mg/ml Peptide, t = 48 hours, single replicates, listed as Sample#3

Compound: CC(=O)N[C@H]1CSSC[C@@H](C(N)=O)NC(=O)[C@H](C(C)C)NC(=O)CNC(=O)[C@H](Cc2c[nH]cn2)NC1=O [N—Ac—CHGVC—NH2, reference compound]
- Percutaneous absorption concentration for Dextran Rhodamine Green 3000 (human skin; [2]): 0.23 mg/5ml
- Percutaneous absorption concentration for Oregon Green 488 (human skin; [2]): 0.055 mg/5ml
- Percutaneous absorption concentration for Dextran Rhodamine Green 3000 (human skin; [3]): 0.2 mg/5ml (2×) and 0.3 mg/5ml
- Percutaneous absorption concentration for Oregon Green 488 (human skin; [3]): 0.098 mg/5ml and 0.022 mg/5ml and 0.045 mg/5ml
- Percutaneous absorption concentration for Dextran Rhodamine Green 3000 (human skin; [4]): 0.67 mg/5ml
- Percutaneous absorption concentration for Oregon Green 488 (human skin; [4]): 0.132 mg/5ml
- Percutaneous absorption concentration for Dextran Rhodamine Green 3000 (human skin; [5]): 0.6 mg/5ml and 1.0 mg/5ml and 0.4 mg/5ml
- Percutaneous absorption concentration for Oregon Green 488 (human skin; [5]): 0.200 mg/5ml and 0.107 mg/5ml and 0.088 mg/5ml
- Percutaneous absorption concentration for Dextran Rhodamine Green 3000 (human skin; [6]): 1.07 mg/5ml
- Percutaneous absorption concentration for Oregon Green 488 (human skin; [6]): 0.698 mg/5ml
- Percutaneous absorption concentration for Dextran Rhodamine Green 3000 (human skin; [7]): 1.0 mg/5ml and 1.4 mg/5ml and 0.8 mg/5ml
- Percutaneous absorption concentration for Oregon Green 488 (human skin; [7]): 0.709 mg/5ml and 0.864 mg/5ml and 0.522 mg/5ml
- Percutaneous absorption concentration for Dextran Rhodamine Green 3000 (human skin; [8]): 1.2 mg/5ml
- Percutaneous absorption concentration for Oregon Green 488 (human skin; [8]): 0.802 mg/5ml
- Percutaneous absorption concentration for Dextran Rhodamine Green 3000 (human skin; [9]): 1.0 mg/5ml (2×) and 1.6 mg/5ml
- Percutaneous absorption concentration for Oregon Green 488 (human skin; [9]): 0.769 mg/5ml and 0.923 mg/5ml and 0.714 mg/5ml
- Percutaneous absorption concentration for Dextran Rhodamine Green 3000 (human skin; [10]): 2.99 mg/5ml
- Percutaneous absorption concentration for Oregon Green 488 (human skin; [10]): 0.902 mg/5ml
- Percutaneous absorption concentration for Dextran Rhodamine Green 3000 (human skin; [11]): 1.8 mg/5ml (2×) and 5.370 mg/5ml
- Percutaneous absorption concentration for Oregon Green 488 (human skin; [11]): 0.923 mg/5ml and 1.021 mg/5ml and 0.764 mg/5ml
- Percutaneous absorption concentration for Dextran Rhodamine Green 3000 (human skin; [12]): 1.93 mg/5ml
- Percutaneous absorption concentration for Oregon Green 488 (human skin; [12]): 0.04 mg/5ml
- Percutaneous absorption concentration for Dextran Rhodamine Green 3000 (human skin; [13]): 1.8 mg/5ml and 0.2 mg/5ml and 3.8 mg/5ml
- Percutaneous absorption concentration for Oregon Green 488 (human skin; [13]): 0.04 mg/5ml and 0.01 mg/5ml and 0.06 mg/5ml
- Percutaneous absorption concentration for Dextran Rhodamine Green 3000 (human skin; [14]): 8.97 mg/5ml
- Percutaneous absorption concentration for Oregon Green 488 (human skin; [14]): 0.07 mg/5ml
- Percutaneous absorption concentration for Dextran Rhodamine Green 3000 (human skin; [15]): 17.02 mg/5ml and 2.0 mg/5ml and 7.89 mg/5ml
- Percutaneous absorption concentration for Oregon Green 488 (human skin; [15]): 0.11 mg/5ml and 0.04 mg/5ml and 0.08 mg/5ml
- Percutaneous absorption concentration for Dextran Rhodamine Green 3000 (human skin; [16]): 15.64 mg/5ml
- Percutaneous absorption concentration for Oregon Green 488 (human skin; [16]): 0.16 mg/5ml
- Percutaneous absorption concentration for Dextran Rhodamine Green 3000 (human skin; [17]): 27.47 mg/5ml and 5.56 mg/5ml and 13.9 mg/5ml
- Percutaneous absorption concentration for Oregon Green 488 (human skin; [17]): 0.12 mg/5ml and 0.11 mg/5ml and 0.26 mg/5ml
- Percutaneous absorption concentration for Dextran Rhodamine Green 3000 (human skin; [18]): 19.73 mg/5ml
- Percutaneous absorption concentration for Oregon Green 488 (human skin; [18]): 0.25 mg/5ml
- Percutaneous absorption concentration for Dextran Rhodamine Green 3000 (human skin; [19]): 33.06 mg/5ml and 5.79 mg/5ml and 20.35 mg/5ml
- Percutaneous absorption concentration for Oregon Green 488 (human skin; [19]): 0.23 mg/5ml and 0.22 mg/5ml and 0.29 mg/5ml
- Percutaneous absorption concentration for Dextran Rhodamine Green 3000 (human skin; [20]): 25.53 mg/5ml
- Percutaneous absorption concentration for Oregon Green 488 (human skin; [20]): 0.36 mg/5ml
- Percutaneous absorption concentration for Dextran Rhodamine Green 3000 (human skin; [21]): 40.86 mg/5ml and 8.25 mg/5ml and 27.48 mg/5ml
- Percutaneous absorption concentration for Oregon Green 488 (human skin; [21]): 0.36 mg/5ml and 0.26 mg/5ml and 0.46 mg/5ml
- cell death of SKOV3 cells [1]: did not die
